For one assay, the target named is T1, Tyrosinase enzyme (Homo sapiens, UniProt P14679).
T1 construct: Primary human melanocytic lysate was used as a source of Tyrosinase enzyme; endogenous in cells; host or cells: primary human melanocytes (lysate)
T1 sequence (P14679 19-529): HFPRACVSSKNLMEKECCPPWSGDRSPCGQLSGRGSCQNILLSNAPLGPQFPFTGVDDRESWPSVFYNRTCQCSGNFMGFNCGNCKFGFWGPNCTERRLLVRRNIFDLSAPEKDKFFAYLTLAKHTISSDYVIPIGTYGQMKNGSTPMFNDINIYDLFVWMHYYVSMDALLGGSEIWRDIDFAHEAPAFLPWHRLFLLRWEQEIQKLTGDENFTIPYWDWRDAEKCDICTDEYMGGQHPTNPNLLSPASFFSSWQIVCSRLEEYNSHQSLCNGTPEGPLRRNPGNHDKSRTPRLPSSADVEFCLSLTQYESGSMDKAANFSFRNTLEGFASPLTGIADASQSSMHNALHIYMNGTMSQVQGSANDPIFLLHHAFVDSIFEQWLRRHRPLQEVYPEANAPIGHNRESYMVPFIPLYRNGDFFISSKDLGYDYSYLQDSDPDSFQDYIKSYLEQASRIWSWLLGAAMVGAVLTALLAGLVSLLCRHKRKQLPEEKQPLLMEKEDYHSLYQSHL
The assay is described as follows: In vitro human tyrosinase activity assay (melanocytic lysate). In kind it is biochemical. The method, then: (v) In Vitro Human Tyrosinase Activity Assay: • Primary human melanocytic lysate was used as a source of Tyrosinase enzyme. Human melanocytic lysate and test actives (at different concentrations) were incubated together for 15 mins, prior to addition of Tyrosine/DOPA substrate mix. Assay plate was then incubated at 37° C. for ˜14-16 hrs. Optical Density was measured at 405 nm and % inhibition of Tyrosinase activity calculated. Results

The subject of assay [1] is primary human melanocytes. The assay is described as follows: Melanin content assay in primary human melanocytes. In kind it is cell-based. Conditions: for inhibition at 1 µM / inhibition at 10 µM: Homo sapiens, Melanocyte, 72 hrs treatment, corrected for cell numbers, read-out: Average % inhibition of cellular melanin; for reduction of melanin content (in words): primary human melanocytes. The method, then: (i) Cell Cultures: • Neonatal foreskin primary human melanocytes were procured from Life Technologies, USA. Cells were grown in Medium 254 supplemented with human melanocyte growth supplement-2 and maintained at 37° C. in a humidified incubator with 5% CO2 atmosphere. The maintenance and sub culturing of cells were carried out as per the manufacturer's instructions. Cells between passages 3-6 were used for experimentation.
(ii) Active Addition: • Cells were seeded at a density of 5×10^4/well in a 24 well plate in Melanocyte Growth Media (MGM) and incubated for 24 hrs at 37° C./5% CO2. Actives were added to cells along with relevant controls. 72 hrs post active treatment, cell viability was determined using the Calcein method followed by measurement of cellular melanin content (described in below sections).
(iii) Cell Viability Assay: • Briefly, spent media was removed and cells washed once with 0.2 ml of 1× PBS-Ca—Mg solution. Fresh 1 μM calcein-AM in PBS buffer was added to each well. Plates were incubated for 30 min. at 37° C. in a CO2 incubator. Calcein fluorescence was then measured (excitation at 490 nm and emission at 520 nm) in TECAN M1000 plate reader.
(iv) Melanin Content Assay: • After Calcein measurements, cultures were rinsed with PBS (1×) and lysed for 1 hour at 60° C. in a shaker incubator using NaOH/DMSO mix. Melanin content was measured in a Tecan plate reader (405 nm filter), corrected for cell numbers and represented as % inhibition.

As for `CCCCCCc1ccc(O)cc1O` [4-HR, 4-Hexylresorcinol], the “direct modulation / inhibition of Tyrosinase enzyme activity (in words)” value at Tyrosinase enzyme is recorded as “through direct modulation of Tyrosinase enzyme activity”. Moreover, the inhibition (usually the relative decrease from the control value, in per cent) at 1 µM against Tyrosinase enzyme (1 μM) came out at 28%; in assay [1], 11%. Further, on Tyrosinase enzyme (5 μM), at 5 µM the inhibition was 55%. For the same molecule, the inhibition at 10 µM at Tyrosinase enzyme (10 μM) turned out to be 78%; in assay [1] it was 38%. At Tyrosinase enzyme (50 μM), this molecule came in with an inhibition at 50 µM of 78%. The “reduction of melanin content (in words)” value in assay [1] (concentration not specified) is on record as “significant reduction in melanin content”.
Regarding `CNC(=O)[C@H](Cc1c[nH]c2ccccc12)NC(=O)[C@@H](CC(=O)NO)CC(C)C` [Galardin, (R)-N4-Hydroxy-N1-[(S)-2-(1H-indol-3-yl)-1-methylcarbamoyl-ethyl]-2-isobutyl-succinamide], in assay [1], the inhibition at 1 µM was found to be 7% and the inhibition at 10 µM stood at 17%. For the same molecule, the “reduction of melanin content (in words)” value in assay [1] (at 1 μM) is “no reduction”. Moreover, the “reduction of melanin content (in words)” value in assay [1] (at 10 μM) was “modest reduction”.

(Values after patent US10166412B2, “Skin lightening composition comprising 4-hexylresorcinol and ilomastat” (Conopco, Inc., priority 2014, dated 2019).)
